Test results reported in PubChem BioAssay (NCI).
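The compound was tested at five concentrations on cells cultured in 96-well plates, with a 48-hour exposure period. TGI: total growth inhibition.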

Tests used:
Experiment in all cases: DTP human tumour cell line panel, 48 h
786-0 renal = system: 786-0 renal
A498 renal = system: A498 renal
A549 NSCLC = system: A549 NSCLC
ACHN renal = system: ACHN renal
BT-549 breast = system: BT-549 breast
CAKI-1 renal = system: CAKI-1 renal
COLO 205 colon = system: COLO 205 colon
DU-145 prostate = system: DU-145 prostate
EKVX NSCLC = system: EKVX NSCLC
HCC-2998 colon = system: HCC-2998 colon
HCT-116 colon = system: HCT-116 colon
HCT-15 colon = system: HCT-15 colon
HOP-62 NSCLC = system: HOP-62 NSCLC
HOP-92 NSCLC = system: HOP-92 NSCLC
HS 578T breast = system: HS 578T breast
HT29 colon = system: HT29 colon
IGROV1 ovarian = system: IGROV1 ovarian
K-562 leukemia = system: K-562 leukemia
M14 melanoma = system: M14 melanoma
MCF7 breast = system: MCF7 breast
MDA-MB-231 breast = system: MDA-MB-231 breast
MDA-MB-435 = system: MDA-MB-435
MDA-N = system: MDA-N
MOLT-4 leukemia = system: MOLT-4 leukemia
NCI-H23 lung = system: NCI-H23 lung
NCI-H460 lung = system: NCI-H460 lung
NCI-H522 lung = system: NCI-H522 lung
OVCAR-3 ovarian = system: OVCAR-3 ovarian
OVCAR-4 ovarian = system: OVCAR-4 ovarian
OVCAR-5 ovarian = system: OVCAR-5 ovarian
OVCAR-8 ovarian = system: OVCAR-8 ovarian
PC-3 prostate = system: PC-3 prostate
RXF 393 renal = system: RXF 393 renal
SF-268 CNS = system: SF-268 CNS
SF-295 CNS = system: SF-295 CNS
SF-539 CNS = system: SF-539 CNS
SK-MEL-2 melanoma = system: SK-MEL-2 melanoma
SK-MEL-28 melanoma = system: SK-MEL-28 melanoma
SK-MEL-5 melanoma = system: SK-MEL-5 melanoma
SK-OV-3 ovarian = system: SK-OV-3 ovarian
SN12C renal = system: SN12C renal
SNB-19 CNS = system: SNB-19 CNS
SNB-75 CNS = system: SNB-75 CNS
SW-620 colon = system: SW-620 colon
T-47D breast = system: T-47D breast
TK-10 renal = system: TK-10 renal
U251 CNS = system: U251 CNS
UACC-257 melanoma = system: UACC-257 melanoma
UACC-62 melanoma = system: UACC-62 melanoma
UO-31 renal = system: UO-31 renal
CCRF-CEM leukemia = system: CCRF-CEM leukemia
HL-60(TB) leukemia = system: HL-60(TB) leukemia
KM12 colon = system: KM12 colon
LOX IMVI melanoma = system: LOX IMVI melanoma
NCI/ADR-RES ovarian = system: NCI/ADR-RES ovarian
SR leukemia = system: SR leukemia

Measured: TGI

CCOC(=O)C(=[N+]=[N-])C(=O)CN1C(=O)c2ccccc2C1=O
not listed: CCRF-CEM leukemia | HL-60(TB) leukemia | KM12 colon | LOX IMVI melanoma | NCI/ADR-RES ovarian | SR leukemia
> 100 µM: all other assays above

CCOC(=O)CCCSCCCC(=O)CCCSCCCC(=O)OCC
not listed: A498 renal | ACHN renal | CAKI-1 renal | HS 578T breast | RXF 393 renal | SK-MEL-2 melanoma
> 100 µM: all other assays above
